Measurements published in US11208400B2, “Substituted 6-(1H-pyrazol-1-yl)pyrimidin-4-amine derivatives and uses thereof” (Bayer Aktiengesellschaft, priority 2016, dated 2021).

Each compound was assayed against T1, human Npt2a (Homo sapiens, UniProt Q06495) (assay: Npt2a activity cell based assay, membrane potential dye, CHO T-REx hNpt2a cells). Settings: doxycycline-induced, depolarization by sodium phosphate influx, average or median values if tested more than once.
T1 construct: expressed in transfected cells
T1 sequence (Q06495 1-639): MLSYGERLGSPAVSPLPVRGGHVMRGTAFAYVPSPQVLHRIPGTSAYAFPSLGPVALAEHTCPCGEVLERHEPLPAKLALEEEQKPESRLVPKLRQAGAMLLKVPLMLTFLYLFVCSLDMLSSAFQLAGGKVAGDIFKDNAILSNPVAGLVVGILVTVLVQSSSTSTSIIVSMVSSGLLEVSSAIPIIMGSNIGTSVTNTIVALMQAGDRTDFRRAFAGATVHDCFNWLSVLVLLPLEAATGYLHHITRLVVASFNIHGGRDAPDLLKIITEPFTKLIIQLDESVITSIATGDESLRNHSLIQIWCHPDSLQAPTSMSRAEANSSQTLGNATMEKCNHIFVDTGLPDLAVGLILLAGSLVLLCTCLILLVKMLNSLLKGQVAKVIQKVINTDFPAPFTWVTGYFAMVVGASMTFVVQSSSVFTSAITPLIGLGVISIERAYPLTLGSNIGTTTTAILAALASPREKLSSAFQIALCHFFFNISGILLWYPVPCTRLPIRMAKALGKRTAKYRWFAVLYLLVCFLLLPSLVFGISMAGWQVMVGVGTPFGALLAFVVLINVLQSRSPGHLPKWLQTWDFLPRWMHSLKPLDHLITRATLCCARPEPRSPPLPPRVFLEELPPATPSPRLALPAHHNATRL
Procedure, shortened: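 Cells were doxycycline-induced CHO T-REx hNpt2a, dye-loaded and pretreated 5 min at RT with 1 nM–50 μM compound in Na-free pH 7.4 buffer. IC50 was fit to the post/pre-trigger fluorescence ratio.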

Compound | IC50 [nM]
Cc1cc(C(F)F)n(-c2cc(Nc3nn(C)c(-c4ccc(F)cc4)c3C3CC3)ncn2)n1 [Example 95, N-[4-cyclopropyl-5-(4-fluorophenyl)-1-methyl-1H-pyrazol-3-yl]-6-[5-(difluoromethyl)-3-methyl-1H-pyrazol-1-yl]pyrimidin-4-amine] | 63.5
Cc1cc(C(F)F)n(-c2cc(Nc3c(C4CC4)c(-c4ccc(F)cc4)nn3C)ncn2)n1 [Example 96, N-[4-cyclopropyl-3-(4-fluorophenyl)-1-methyl-1H-pyrazol-5-yl]-6-[5-(difluoromethyl)-3-methyl-1H-pyrazol-1-yl]pyrimidin-4-amine] | 110
CCc1c(-c2ccc(F)cc2)nn(C)c1Nc1cc(-n2nc(C)c(Cl)c2C)ncn1 [Example 97, 6-(4-chloro-3,5-dimethyl-1H-pyrazol-1-yl)-N-[4-ethyl-3-(4-fluorophenyl)-1-methyl-1H-pyrazol-5-yl]pyrimidin-4-amine] | 75
Cc1cc(C)n(-c2cc(Nc3nn(C)c(-c4ccc(OC(F)(F)F)cc4)c3C)ncn2)n1 [Example 98, 6-(3,5-dimethyl-1H-pyrazol-1-yl)-N-{1,4-dimethyl-5-[4-(trifluoromethoxy)phenyl]-1H-pyrazol-3-yl}pyrimidin-4-amine] | 51
CCc1c(Nc2cc(-n3nc(C)c(Cl)c3C)ncn2)nn(C)c1-c1ccc(F)cc1 [Example 99, 6-(4-chloro-3,5-dimethyl-1H-pyrazol-1-yl)-N-[4-ethyl-5-(4-fluorophenyl)-1-methyl-1H-pyrazol-3-yl]pyrimidin-4-amine] | 50
Cc1nn(-c2cc(Nc3c(Cl)c(-c4ccc(F)cc4)nn3C)ncn2)c2ccccc12 [Example 100, N-[4-chloro-3-(4-fluorophenyl)-1-methyl-1H-pyrazol-5-yl]-6-(3-methyl-1H-indazol-1-yl)pyrimidin-4-amine] | 360
Cc1cc(C)n(-c2cc(Nc3nn(C)c(-c4ccc(C(F)(F)F)cc4)c3C)ncn2)n1 [Example 101, 6-(3,5-dimethyl-1H-pyrazol-1-yl)-N-{1,4-dimethyl-5-[4-(trifluoromethyl)phenyl]-1H-pyrazol-3-yl}pyrimidin-4-amine] | 11.5
Cc1nn(-c2ccc(F)cc2)c(C)c1Nc1cc(-n2nc(C)c3ccccc32)ncn1 [Example 102, N-[1-(4-fluorophenyl)-3,5-dimethyl-1H-pyrazol-4-yl]-6-(3-methyl-1H-indazol-1-yl)pyrimidin-4-amine] | 7.3
Cc1nn(-c2ccc(F)cc2)c(C)c1Nc1cc(-n2nc3ccccc3c2C)ncn1 [Example 103, N-[1-(4-fluorophenyl)-3,5-dimethyl-1H-pyrazol-4-yl]-6-(3-methyl-2H-indazol-2-yl)pyrimidin-4-amine] | 64
CCc1c(Nc2cc(-n3nc(C)cc3CO)ncn2)nn(C)c1-c1ccc(F)cc1 [Example 104, [1-(6-{[4-ethyl-5-(4-fluorophenyl)-1-methyl-1H-pyrazol-3-yl]amino}pyrimidin-4-yl)-3-methyl-1H-pyrazol-5-yl]methanol] | 150
CCc1c(Nc2cc(-n3nc(C)c(C(=O)N4CCCCC4)c3C)ncn2)nn(C)c1-c1ccc(F)cc1 [Example 105, [1-(6-{[4-ethyl-5-(4-fluorophenyl)-1-methyl-1H-pyrazol-3-yl]amino}pyrimidin-4-yl)-3,5-dimethyl-1H-pyrazol-4-yl](piperidin-1-yl)methanone] | 235
CCc1c(Nc2cc(-n3nc(C)c(C#N)c3C)ncn2)n[nH]c1-c1ccc(F)cc1 [Example 108, 1-(6-{[4-ethyl-5-(4-fluorophenyl)-1H-pyrazol-3-yl]amino}pyrimidin-4-yl)-3,5-dimethyl-1H-pyrazole-4-carbonitrile] | 94
Cc1nn(-c2cc(Nc3nn(C)c(-c4ccc(F)cc4)c3C)ncn2)c(C)c1C(C)(C)O [Example 109, 2-[1-(6-{[5-(4-fluorophenyl)-1,4-dimethyl-1H-pyrazol-3-yl]amino}pyrimidin-4-yl)-3 5-dimethyl-1H-pyrazol-4-yl]propan-2-ol] | 50.3
Cc1nn(-c2cc(Nc3nn(C)c(-c4ccc(F)cc4)c3Cl)ncn2)c2ccccc12 [Example 110, N-[4-chloro-5-(4-fluorophenyl)-1-methyl-1H-pyrazol-3-yl]-6-(3-methyl-1H-indazol-1-yl)pyrimidin-4-amine] | 22
CCc1c(Nc2cc(-n3nc(C)cc3C)ncn2)nn(CCO)c1-c1ccc(F)cc1 [Example 111, 2-[3-{[6-(3,5-dimethyl-1H-pyrazol-1-yl)pyrimidin-4-yl]amino}-4-ethyl-5-(4-fluorophenyl)-1H-pyrazol-1-yl]ethanol] | 360
CCc1c(Nc2cc(-n3nc(C)c(C#N)c3C)ncn2)nn(C)c1-c1ccc(F)cc1 [Example 112, 1-(6-{[4-ethyl-5-(4-fluorophenyl)-1-methyl-1H-pyrazol-3-yl]amino}pyrimidin-4-yl)-3,5-dimethyl-1H-pyrazole-4-carbonitrile] | 59.5
CC(=O)c1c(C)nn(-c2cc(Nc3nn(C)c(-c4ccc(F)cc4)c3C)ncn2)c1C [Example 113, 1-[1-(6-{[5-(4-fluorophenyl)-1,4-dimethyl-1H-pyrazol-3-yl]amino}pyrimidin-4-yl)-3,5-dimethyl-1H-pyrazol-4-yl]ethanone] | 32
CCc1c(Nc2cc(-n3nc(C)cc3C)ncn2)nn(S(C)(=O)=O)c1-c1ccc(F)cc1 [Example 114, 6-(3,5-dimethyl-1H-pyrazol-1-yl)-N-[4-ethyl-5-(4-fluorophenyl)-1-(methylsulfonyl)-1H-pyrazol-3-yl]pyrimidin-4-amine] | 290
CCc1c(-c2ccc(F)cc2)nn(CC2CC2)c1Nc1cc(-n2nc(C)c(Cl)c2C)ncn1 [Example 115, 6-(4-chloro-3,5-dimethyl-1H-pyrazol-1-yl)-N-[1-(cyclopropylmethyl)-4-ethyl-3-(4-fluorophenyl)-1H-pyrazol-5-yl]pyrimidin-4-amine] | < 1.6
Cc1cc(C)n(-c2cc(Nc3c(C)c(-c4ccc(OC(F)(F)F)cc4)nn3C)ncn2)n1 [Example 116, 6-(3,5-dimethyl-1H-pyrazol-1-yl)-N-{1,4-dimethyl-3-[4-(trifluoromethoxy)phenyl]-1H-pyrazol-5-yl}pyrimidin-4-amine] | 92.5
Cc1nn(-c2cc(Nc3nn(C)c(-c4ccc(OC(F)(F)F)cc4)c3C)ncn2)c(C)c1Cl [Example 117, 6-(4-chloro-3,5-dimethyl-1H-pyrazol-1-yl)-N-{1,4-dimethyl-5-[4-(trifluoromethoxy)phenyl]-1H-pyrazol-3-yl}pyrimidin-4-amine] | 19
Cc1cc(C)n(-c2cc(Nc3nn(C)c(-c4ccc(C#N)cc4)c3C)ncn2)n1 [Example 118, 4-(3-{[6-(3,5-dimethyl-1H-pyrazol-1-yl)pyrimidin-4-yl]amino}-1,4-dimethyl-1H-pyrazol-5-yl)benzonitrile] | 7
CCc1c(-c2ccc(F)cc2)nn(C2CC2)c1Nc1cc(-n2nc(C)cc2C)ncn1 [Example 119, N-[1-cyclopropyl-4-ethyl-3-(4-fluorophenyl)-1H-pyrazol-5-yl]-6-(3,5-dimethyl-1H-pyrazol-1-yl)pyrimidin-4-amine] | 870
CCc1c(-c2ccc(F)cc2)nn(C2CC2)c1Nc1cc(-n2nc(C)c(Cl)c2C)ncn1 [Example 120, 6-(4-chloro-3,5-dimethyl-1H-pyrazol-1-yl)-N-[1-cyclopropyl-4-ethyl-3-(4-fluorophenyl)-1H-pyrazol-5-yl]pyrimidin-4-amine] | 1450
CCc1c(-c2ccc(F)cc2)nn(CC2CC2)c1Nc1cc(-n2nc(C)cc2C)ncn1 [Example 121, N-[1-(cyclopropylmethyl)-4-ethyl-3-(4-fluorophenyl)-1H-pyrazol-5-yl]-6-(3,5-dimethyl-1H-pyrazol-1-yl)pyrimidin-4-amine] | < 1.6
COC(=O)c1ccc(-c2c(C)c(Nc3cc(-n4nc(C)cc4C)ncn3)nn2C)cc1 [Example 122, methyl 4-(3-{[6-(3,5-dimethyl-1H-pyrazol-1-yl)pyrimidin-4-yl]amino}-1,4-dimethyl-1H-pyrazol-5-yl)benzoate] | 25
CCc1c(Nc2cc(-n3nc(C)c(C(=O)N4CCC4)c3C)ncn2)nn(C)c1-c1ccc(F)cc1 [Example 123, azetidin-1-yl[1-(6-{[4-ethyl-5-(4-fluorophenyl)-1-methyl-1H-pyrazol-3-yl]amino}pyrimidin-4-yl)-3,5-dimethyl-1H-pyrazol-4-yl]methanone] | 395
CCc1c(Nc2cc(-n3nc(C)c(C(=O)N4CC(F)(F)C4)c3C)ncn2)nn(C)c1-c1ccc(F)cc1 [Example 124, (3,3-difluoroazetidin-1-yl) [1-(6-{[4-ethyl-5-(4-fluorophenyl)-1-methyl-1H-pyrazol-3-yl]amino}pyrimidin-4-yl)-3,5-dimethyl-1H-pyrazol-4-yl]methanone] | 155
CCc1c(Nc2cc(-n3nc(C)cc3C(C)(C)O)ncn2)nn(C)c1-c1ccc(F)cc1 [Example 125, 2-[1-(6-{[4-ethyl-5-(4-fluorophenyl)-1-methyl-1H-pyrazol-3-yl]amino}pyrimidin-4-yl)-3-methyl-1H-pyrazol-5-yl]propan-2-ol] | 20.3
